Patent US20260285853A1, “COMPOUNDS AND METHODS FOR MODULATING SPLICING” (REMIX THERAPEUTICS INC., priority 2023, published 2026)

How the values were obtained:
Type in all cases: cell-based
MYB mRNA [1] = assay: Gene panel canonical junction qPCR assay, decrease in CJ mRNA, Table 3; settings: decrease in CJ mRNA levels, canonical junction qPCR, gene panel
Outline: (§1)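 Eleven-point dose responses from 10 uM final, 24 h, DMSO ≤0.25%, in A673 or K562 cells. Relative quantification by 2^(−ΔΔCt) against housekeeper and vehicle was converted to percent response over fixed ΔCt windows and fitted to yield IC50.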

HTT mRNA [2] = assay: as above; settings: decrease in CJ mRNA levels, canonical junction qPCR, gene panel
Outline: as §1

[3] = system: SH-SY5Y (human neuroblastoma) cells; assay: Cell viability, Cell Titer Glo 2.0 assay; settings: read-out: Viability SHSY5Y.3 GI50
Outline: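 Following a 72 h incubation (37 °C, 5% CO2, 0.1% DMSO final), compound toxicity toward SH-SY5Y cells was quantified by CellTiter-Glo 2.0.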

MYB mRNA [4] = assay: Splicing RT-qPCR assay (THP), Table 2A; settings: Table 2A, THP; for AC50: MYB alternative junction (AJ) mRNA, read-out: MYB AJ (AC50, increase in alternative junction mRNA); for IC50: MYB canonical junction (CJ) mRNA, read-out: MYB CJ (IC50, decrease in canonical junction mRNA)
HTT mRNA [5] = assay: Splicing RT-qPCR assay (THP), Table 2A; settings: Table 2A, THP; for AC50: HTT alternative junction (AJ) mRNA, read-out: HTT AJ (AC50, increase in alternative junction mRNA); for IC50: HTT canonical junction (CJ) mRNA, read-out: HTT CJ (IC50, decrease in canonical junction mRNA)

| Compound | IC50 (MYB mRNA [1]) [nM] | IC50 (HTT mRNA [2]) [nM] | GI50 [3] [nM] | AC50 (MYB mRNA [4]) [nM] | IC50 (MYB mRNA [4]) [nM] | AC50 (HTT mRNA [5]) [nM] | IC50 (HTT mRNA [5]) [nM] |
| --- | --- | --- | --- | --- | --- | --- | --- |
| COc1nc2c(C(=O)Nc3cc(F)c4nn(C)cc4c3)ccc(N3CCN4CCCC[C@H]4C3)c2s1 [Compound 746] | 100 to 1000 | 100 to 1000 | 100 to 1000 | < 100 | 100 to 1000 | 100 to 1000 | 100 to 1000 |
| CN[C@@H]1CCN(c2ccc(C(=O)Nc3cc(F)c4nn(C)cc4c3)c3nc(OC)sc23)C1 [Compound 747, N-(7-fluoro-2-methyl-indazol-5-yl)-2-methoxy-7-[(3R)-3-(methylamino)pyrrolidin-1-yl]-1,3-benzothiazole-4-carboxamide] | < 100 | 100 to 1000 | 100 to 1000 | < 100 | < 100 | 100 to 1000 | 100 to 1000 |
| CN[C@H]1CCN(c2ccc(C(=O)Nc3cc(F)c4nn(C)cc4c3)c3nc(OC)sc23)C1 [Compound 748, N-(7-fluoro-2-methyl-indazol-5-yl)-2-methoxy-7-[(3S)-3-(methylamino)pyrrolidin-1-yl]-1,3-benzothiazole-4-carboxamide] | < 100 | 1000 to 10000 | 100 to 1000 | < 100 | < 100 | 100 to 1000 | 1000 to 10000 |
| CNC1CN(c2ccc(C(=O)Nc3cc(F)c4nn(C)cc4c3)c3nc(OC)sc23)C1 [Compound 749, N-(7-fluoro-2-methyl-indazol-5-yl)-2-methoxy-7-[3-(methylamino)azetidin-1-yl]-1,3-benzothiazole-4-carboxamide] | < 100 | 100 to 1000 | 100 to 1000 | 100 to 1000 | < 100 | 100 to 1000 | 100 to 1000 |
| CNCC1CN(c2ccc(C(=O)Nc3cc(F)c4nn(C)cc4c3)c3nc(OC)sc23)C1 [Compound 750] | < 100 | < 100 | 100 to 1000 | < 100 | < 100 | 100 to 1000 | < 100 |
| Cc1cn2cc(NC(=O)c3ccc(N4CCC(NC5CC5)CC4)c4cn(C)nc34)nc2c(CNS(=O)(=O)CCO)n1 [Compound 752, 4-[4-(cyclopropylamino)-1-piperidyl]-N-[8-[(2-hydroxyethylsulfonylamino)methyl]-6-methyl-imidazo[1,2-a]pyrazin-2-yl]-2-methyl-indazole-7-carboxamide] | > 10000 | > 10000 | > 10000 | > 10000 | > 10000 | > 10000 | > 10000 |
| Cc1cn2cc(NC(=O)c3ccc(N4CCC(NC5CC5)CC4)c4cn(C)nc34)nc2c(CCN)n1 [Compound 753, N-[8-(2-aminoethyl)-6-methyl-imidazo[1,2-a]pyrazin-2-yl]-4-[4-(cyclopropylamino)-1-piperidyl]-2-methyl-indazole-7-carboxamide] | > 10000 | > 10000 | > 10000 | > 10000 | > 10000 | > 10000 | > 10000 |
| Cc1cn2cc(NC(=O)c3ccc(N4CCC(NC5CC5)CC4)c4cn(C)nc34)nc2c(CNC(=N)N)n1 [Compound 754, 4-(4-(cyclopropylamino)piperidin-1-yl)-N-(8-(guanidinomethyl)-6-methylimidazo[1,2-a]pyrazin-2-yl)-2-methyl-2H-indazole-7-carboxamide bis(2,2,2-trifluoroacetate)] | > 10000 | > 10000 | > 10000 | > 10000 | > 10000 | > 10000 | > 10000 |
| Cc1nc2c(F)cc(NC(=O)c3ccc(N4CCC(NC5CC5)CC4)c4cn(C)nc34)cn2n1 [Compound 755, 4-[4-(cyclopropylamino)-1-piperidyl]-N-(8-fluoro-2-methyl-[1,2,4]triazolo[1,5-a]pyridin-6-yl)-2-methyl-indazole-7-carboxamide] | 100 to 1000 | 1000 to 10000 | 100 to 1000 | < 100 | 100 to 1000 | 1000 to 10000 | 1000 to 10000 |
| COc1nc2c(C(=O)Nc3cc(F)c4nn(C)nc4c3)ccc(N3C[C@H](C)N[C@@H](C)C3)c2s1 [Compound 756, 7-[(3S,5S)-3,5-dimethylpiperazin-1-yl]-N-(7-fluoro-2-methyl-benzotriazol-5-yl)-2-methoxy-1,3-benzothiazole-4-carboxamide] | < 100 | 100 to 1000 | < 100 | < 100 | < 100 | 100 to 1000 | 100 to 1000 |
| COc1nc2c(C(=O)Nc3cc(C#N)c4nn(C)cc4c3)ccc(N3C[C@H](C)N[C@@H](C)C3)c2s1 [Compound 757, N-(7-cyano-2-methyl-indazol-5-yl)-7-[(3S,5S)-3,5-dimethylpiperazin-1-yl]-2-methoxy-1,3-benzothiazole-4-carboxamide] | < 100 | > 10000 | 100 to 1000 | < 100 | < 100 | 1000 to 10000 | > 10000 |
| COc1nc2c(C(=O)Nc3cc(C#N)c4nc(C)cn4c3)ccc(N3C[C@H](C)N[C@@H](C)C3)c2s1 [Compound 758, N-(8-cyano-2-methyl-imidazo[1,2-a]pyridin-6-yl)-7-[(3S,5S)-3,5-dimethylpiperazin-1-yl]-2-methoxy-1,3-benzothiazole-4-carboxamide] | < 100 | > 10000 | 100 to 1000 | < 100 | < 100 | > 10000 | > 10000 |
| COc1nc2c(C(=O)Nc3cn4cc(C)nc4c(OC)n3)ccc(N3C[C@H](C)N[C@@H](C)C3)c2s1 [Compound 759, 7-((3S,5S)-3,5-dimethylpiperazin-1-yl)-2-methoxy-N-(8-methoxy-2-methylimidazo[1,2-a]pyrazin-6-yl)benzo[d]thiazole-4-carboxamide 2,2,2-trifluoroacetate] | < 100 | 1000 to 10000 | 100 to 1000 | < 100 | < 100 | 1000 to 10000 | 1000 to 10000 |
| COc1nc2c(C(=O)Nc3ccc4c(c3)CCCO4)ccc(N3C[C@H](C)N[C@@H](C)C3)c2s1 [Compound 760] | > 10000 | > 10000 | 1000 to 10000 | > 10000 | > 10000 | > 10000 | > 10000 |
| COc1nc2c(C(=O)Nc3cc4cn(C)nc4c(F)c3O)ccc(N3C[C@H](C)N[C@@H](C)C3)c2s1 [Compound 761, 7-[(3S,5S)-3,5-dimethylpiperazin-1-yl]-N-(7-fluoro-6-hydroxy-2-methyl-indazol-5-yl)-2-methoxy-1,3-benzothiazole-4-carboxamide] | 100 to 1000 | > 10000 | 1000 to 10000 | 100 to 1000 | 100 to 1000 | > 10000 | > 10000 |
| COc1nc2c(C(=O)Nc3cc(CNC(C)=O)c4nn(C)cc4c3)ccc(N3C[C@H](C)N[C@@H](C)C3)c2s1 [Compound 762, N-[7-(acetamidomethyl)-2-methyl-indazol-5-yl]-7-[(3S,5S)-3,5-dimethylpiperazin-1-yl]-2-methoxy-1,3-benzothiazole-4-carboxamide] | < 100 | > 10000 | 1000 to 10000 | < 100 | < 100 | > 10000 | > 10000 |
| COc1nc2c(C(=O)Nc3cc(F)c4nc(C)nn4c3)ccc(N3C[C@H](C)N[C@@H](C)C3)c2s1 [Compound 763, 7-[(3S,5S)-3,5-dimethylpiperazin-1-yl]-N-(8-fluoro-2-methyl-[1,2,4]triazolo[1,5-a]pyridin-6-yl)-2-methoxy-1,3-benzothiazole-4-carboxamide] | < 100 | 1000 to 10000 | < 100 | < 100 | < 100 | 100 to 1000 | 1000 to 10000 |
| COc1nc2c(C(=O)Nc3cn4cc(C)nc4c(F)c3OC)ccc(N3C[C@H](C)N[C@@H](C)C3)c2s1 [Compound 764, 7-((3S,5S)-3,5-dimethylpiperazin-1-yl)-N-(8-fluoro-7-methoxy-2-methylimidazo[1,2-a]pyridin-6-yl)-2-methoxybenzo[d]thiazole-4-carboxamide 2,2,2-trifluoroacetate] | < 100 | 1000 to 10000 | 100 to 1000 | < 100 | < 100 | > 10000 | 1000 to 10000 |
| COc1nc2c(C(=O)Nc3cc(F)c4nn(C)cc4c3)ccc(N3CCN[C@H](C)C3)c2s1 [Compound 765] | < 100 | 100 to 1000 | 100 to 1000 | < 100 | < 100 | 100 to 1000 | 100 to 1000 |
| COc1nc2c(C(=O)Nc3cc(F)c4nn(C)cc4c3)ccc(N3CCN[C@@H](C)C3)c2s1 [Compound 766] | < 100 | < 100 | < 100 | < 100 | < 100 | < 100 | < 100 |
